Target: MAGL (Mus musculus (Mouse), UniProt O35678)
Test: In vitro competitive activity-based protein profiling, mouse brain proteome
Assay type: biochemical
Conditions: for IC50: mouse brain

Sequence of MAGL (O35678 whole entry): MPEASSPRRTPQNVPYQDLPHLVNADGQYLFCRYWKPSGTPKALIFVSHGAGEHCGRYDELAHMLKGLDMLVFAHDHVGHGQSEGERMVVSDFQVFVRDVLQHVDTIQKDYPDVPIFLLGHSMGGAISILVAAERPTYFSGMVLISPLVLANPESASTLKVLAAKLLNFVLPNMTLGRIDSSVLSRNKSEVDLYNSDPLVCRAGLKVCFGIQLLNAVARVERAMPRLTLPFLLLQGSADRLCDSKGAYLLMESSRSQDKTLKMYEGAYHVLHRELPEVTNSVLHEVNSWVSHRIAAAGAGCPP

SMILES	inhibition at 1 µM (1 uM, mouse) [%]	IC50 [nM]	MAGL % Inhibition at 1 uM (Mouse) (1 uM, mouse)
O=C(OC(C(F)(F)F)C(F)(F)F)N1CCC2(CCCN2C(=O)c2cc3ccccc3[nH]2)CC1 [Example 76, 1,1,1,3,3,3-Hexafluoropropan-2-yl 1-(1H-indole-2-carbonyl)-1,8-diazaspiro[4.5] decane-8-carboxylate]	> 75	< 100	–
Cc1cccc2cc(C(=O)N3CCCC34CCN(C(=O)OC(C(F)(F)F)C(F)(F)F)CC4)[nH]c12 [Example 108, 1,1,1,3,3,3-Hexafluoropropan-2-yl 1-(7-methyl-1H-indole-2-carbonyl)-1,8-diazaspiro[4.5] decane-8-carboxylate]	> 75	< 100	–
O=C(OC(C(F)(F)F)C(F)(F)F)N1CCC2(CCCN2Cc2c[nH]c3cccc(Cl)c23)CC1 [Example 45, 1,1,1,3,3,3-Hexafluoropropan-2-yl 1-((4-chloro-1H-indol-3-yl)methyl)-1,8-diazaspiro[4.5] decane-8-carboxylate]	–	100 to 1000	–
O=C(OC(C(F)(F)F)C(F)(F)F)N1CCC2(CCCN2C(=O)c2cc3cc(Cl)c(Cl)cc3[nH]2)CC1 [Example 111, 1,1,1,3,3,3-Hexafluoropropan-2-yl 1-(5,6-dichloro-1H-indole-2-carbonyl)-1,8-diazaspiro[4.5] decane-8-carboxylate]	> 75	< 100	–
O=C(OC(C(F)(F)F)C(F)(F)F)N1CCC2(CCCN2Cc2cc(-c3ccc(Cl)cc3)on2)CC1 [Example 47, 1,1,1,3,3,3-Hexafluoropropan-2-yl 1-((5-(4-chlorophenyl)isoxazol-3-yl)methyl)-1,8-diazaspiro[4.5] decane-8-carboxylate]	> 75	< 100	–
O=C(OC(C(F)(F)F)C(F)(F)F)N1CCC2(CCCN2C(=O)c2nc3ccccc3o2)CC1 [Example 84, 1,1,1,3,3,3-Hexafluoropropan-2-yl 1-(benzo[d]oxazole-2-carbonyl)-1,8-diazaspiro[4.5] decane-8-carboxylate]	> 75	< 100	–
O=C(OC(C(F)(F)F)C(F)(F)F)N1CCC2(CCCN2C(=O)c2cc3cccc(C(F)(F)F)c3s2)CC1 [Example 98, 1,1,1,3,3,3-Hexafluoropropan-2-yl 1-(7-(trifluoromethyl)benzo[b]thiophene-2-carbonyl)-1,8-diazaspiro[4.5] decane-8-carboxylate]	> 75	< 100	–
Cn1cc(C(=O)N2CCCC23CCN(C(=O)OC(C(F)(F)F)C(F)(F)F)CC3)cn1 [Example 70, 1,1,1,3,3,3-Hexafluoropropan-2-yl 1-(1-methyl-1H-pyrazole-4-carbonyl)-1,8-diazaspiro[4.5] decane-8-carboxylate]	> 75	100 to 1000	–
O=C(OC(C(F)(F)F)C(F)(F)F)N1CCC2(CCN(Cc3cncnc3)C2)CC1 [Example 67, 1,1,1,3,3,3-Hexafluoropropan-2-yl 2-(pyrimidin-5-ylmethyl)-2,8-diazaspiro[4.5] decane-8-carboxylate]	> 75	100 to 1000	–
O=C(OC(C(F)(F)F)C(F)(F)F)N1CCC2(CCCN2C(=O)c2cc3ccc(F)cc3s2)CC1 [Example 103, 1,1,1,3,3,3-Hexafluoropropan-2-yl 1-(6-fluorobenzo[b]thiophene-2-carbonyl)-1,8-diazaspiro[4.5] decane-8-carboxylate]	> 75	–	–
O=C(OC(C(F)(F)F)C(F)(F)F)N1CCC2(CCCN2C(=O)c2cnn(-c3ccc(Cl)cc3)c2)CC1 [Example 78, 1,1,1,3,3,3-Hexafluoropropan-2-yl 1-(1-(4-chlorophenyl)-1H-pyrazole-4-carbonyl)-1,8-diazaspiro[4.5] decane-8-carboxylate]	> 75	< 100	–
Cc1c(CN2CCCC23CCN(C(=O)OC(C(F)(F)F)C(F)(F)F)CC3)[nH]c2ccc(Cl)cc12 [Example 48, 1,1,1,3,3,3-Hexafluoropropan-2-yl 1-((5-chloro-3-methyl-1H-indol-2-yl)methyl)-1,8-diazaspiro[4.5] decane-8-carboxylate]	> 75	–	–
CC(C)(C)c1cc(CN2CCC3(CCN(C(=O)OC(C(F)(F)F)C(F)(F)F)CC3)C2)n(-c2ccccc2Cl)n1 [Example 217, 1,1,1,3,3,3-Hexafluoropropan-2-yl 2-((3-(t-butyl)-1-(2-chlorophenyl)-1H-pyrazol-5-yl)methyl)-2,8-diazaspiro[4.5]decane-8-carboxylate]	> 75	< 100	–
Cc1ccc2cc(C(=O)N3CCCC34CCN(C(=O)OC(C(F)(F)F)C(F)(F)F)CC4)sc2c1 [Example 59, 1,1,1,3,3,3-Hexafluoropropan-2-yl 1-(6-methylbenzo[b]thiophene-2-carbonyl)-1,8-diazaspiro[4.5] decane-8-carboxylate]	> 75	–	–
CC(C)n1ccc(C(=O)N2CCCC23CCN(C(=O)OC(C(F)(F)F)C(F)(F)F)CC3)n1 [Example 81, 1,1,1,3,3,3-Hexafluoropropan-2-yl 1-(1-isopropyl-1H-pyrazole-3-carbonyl)-1,8-diazaspiro[4.5] decane-8-carboxylate]	> 75	< 100	–
O=C(OC(C(F)(F)F)C(F)(F)F)N1CCC2(CCCN2C(=O)c2ccn(-c3ccccc3)n2)CC1 [Example 82, 1,1,1,3,3,3-Hexafluoropropan-2-yl 1-(1-phenyl-1H-pyrazole-3-carbonyl)-1,8-diazaspiro[4.5] decane-8-carboxylate]	> 75	< 100	–
O=C(OC(C(F)(F)F)C(F)(F)F)N1CCC2(CCCN2C(=O)c2cnn(-c3ccccc3)c2)CC1 [Example 72, 1,1,1,3,3,3-Hexafluoropropan-2-yl 1-(1-phenyl-1H-pyrazole-4-carbonyl)-1,8-diazaspiro[4.5] decane-8-carboxylate]	> 75	< 100	–
COc1cccc2cc(CN3CCCC34CCN(C(=O)OC(C(F)(F)F)C(F)(F)F)CC4)[nH]c12 [Example 53, 1,1,1,3,3,3-Hexafluoropropan-2-yl 1-((7-methoxy-1H-indol-2-yl)methyl)-1,8-diazaspiro[4.5] decane-8-carboxylate]	> 75	–	–
O=C(OC(C(F)(F)F)C(F)(F)F)N1CCC2(CCCN2C(=O)c2cc3cc(F)ccc3s2)CC1 [Example 99, 1,1,1,3,3,3-Hexafluoropropan-2-yl 1-(5-fluorobenzo[b]thiophene-2-carbonyl)-1,8-diazaspiro[4.5] decane-8-carboxylate]	> 75	< 100	–
O=C(OC(C(F)(F)F)C(F)(F)F)N1CCC2(CCCN2Cc2cc3cc(Cl)ccc3[nH]2)CC1 [Example 224, 1,1,1,3,3,3-Hexafluoropropan-2-yl 1-((5-chloro-1H-indol-2-yl)methyl)-1,8-diazaspiro[4.5]decane-8-carboxylate]	> 75	< 100	–
O=C(OC(C(F)(F)F)C(F)(F)F)N1CCC2(CCN(Cc3cccnc3)C2)CC1 [Example 64, 1,1,1,3,3,3-Hexafluoropropan-2-yl 2-(pyridin-3-ylmethyl)-2,8-diazaspiro[4.5] decane-8-carboxylate]	> 75	100 to 1000	–
CC(C)n1cc(CN2CCCC23CCN(C(=O)OC(C(F)(F)F)C(F)(F)F)CC3)c(-c2cc(Cl)cc(Cl)c2)n1 [Example 220, 1,1,1,3,3,3-Hexafluoropropan-2-yl 1-((3-(3,5-dichlorophenyl)-1-isopropyl-1H-pyrazol-4-yl)methyl)-1,8-diazaspiro[4.5]decane-8-carboxylate]	> 75	–	–
CC(C)n1cc(CN2CCCC23CCN(C(=O)OC(C(F)(F)F)C(F)(F)F)CC3)c(-c2cccc(N3CCCC3)c2)n1 [Example 8, 1,1,1,3,3,3-Hexafluoropropan-2-yl 1-((1-isopropyl-3-(3-(pyrrolidin-1-yl)phenyl)-1H-pyrazol-4-yl)methyl)-1,8-diazaspiro[4.5]decane-8-carboxylate]	–	100 to 1000	### (% inhibition is greater than or equal to 75%)
O=C(OC(C(F)(F)F)C(F)(F)F)N1CCC2(CCCN2Cc2ccc3cc(Cl)ccc3n2)CC1 [Example 55, 1,1,1,3,3.3-Hexafluoropropan-2-yl 1-((6-chloroquinolin-2-yl)methyl)-1,8-diazaspiro[4.5] decane-8-carboxylate]	> 75	< 100	–
O=C(OC(C(F)(F)F)C(F)(F)F)N1CCC2(CCN(Cc3ccccn3)C2)CC1 [Example 73, 1,1,1,3,3,3-Hexafluoropropan-2-yl 2-(pyridin-2-ylmethyl)-2,8-diazaspiro [4.5]decane-8-carboxylate]	> 75	100 to 1000	–
O=C(OC(C(F)(F)F)C(F)(F)F)N1CCC2(CCN(Cc3nccs3)C2)CC1 [Example 66, 1,1,1,3,3,3-Hexafluoropropan-2-yl 2-(thiazol-2-ylmethyl)-2,8-diazaspiro [4.5]decane-8-carboxylate]	> 75	< 100	–
O=C(OC(C(F)(F)F)C(F)(F)F)N1CCC2(CCCN2Cc2cc3c(Cl)cccc3s2)CC1 [Example 44, 1,1,1,3,3,3-Hexafluoropropan-2-yl 1-((4-chlorobenzo[b]thiophen-2-yl)methyl)-1,8-diazaspiro[4.5] decane-8-carboxylate]	> 75	100 to 1000	–
O=C(OC(C(F)(F)F)C(F)(F)F)N1CCC2(CCCN2C(=O)c2cc3cc(Cl)ccc3s2)CC1 [Example 95, 1,1,1,3,3,3-Hexafluoropropan-2-yl 1-(5-chlorobenzo[b]thiophene-2-carbonyl)-1,8-diazaspiro[4.5] decane-8-carboxylate]	> 75	< 100	–
O=C(OC(C(F)(F)F)C(F)(F)F)N1CCC2(CCCN2C(=O)c2cc3cc(C(F)(F)F)ccc3[nH]2)CC1 [Example 100, 1,1,1,3,3,3-Hexafluoropropan-2-yl 1-(5-(trifluoromethyl)-1H-indole-2-carbonyl)-1,8-diazaspiro[4.5] decane-8-carboxylate]	> 75	–	–
O=C(OC(C(F)(F)F)C(F)(F)F)N1CCC2(CCCN2C(=O)c2cc3cc(F)ccc3[nH]2)CC1 [Example 107, 1,1,1,3,3,3-Hexafluoropropan-2-yl 1-(5-fluoro-1H-indole-2-carbonyl)-1,8-diazaspiro[4.5] decane-8-carboxylate]	> 75	< 100	–

Reference: patent US11142526B2, “Spirocycle compounds and methods of making and using same” (H. Lundbeck A/S, priority 2017, dated 2021)
